Source: article PMC12748266, “Testing antimicrobial peptides inhibiting protein synthesis in living E. coli and K. pneumoniae using bio-orthogonal non-canonical amino-acid tagging” (Frontiers in Microbiology, 2025)
No end group written: not given here.

Experiments:
E. coli ATCC 25922 [1] = assay: BONCAT protein synthesis inhibition after antimicrobial washout; format: cell-based, Escherichia coli; settings: 10 or 30 min at MIC (time not given), then 30 min HPG
Method: We used a modified protocol from [Lindivat et al. (2020)]. Briefly, overnight cultures of E. coli ATCC 25922 or K. pneumoniae ATCC 700603, prepared as described above, were diluted to a final concentration of 5×10^6 CFU/mL and allowed to adjust for 30 min at 37 °C. The culture was then incubated at 37 °C in the dark for 10 or 30 min in the presence or absence of each peptide or antibiotic at various concentrations, with a final volume of 1 mL. At this point, only in certain specified experimental assays, the compounds were removed from the supernatant by centrifugation (16,000 × g for 5 min) and bacteria were washed and resuspended in fresh supplemented M9 medium. […] If not analysed immediately, the fixed samples were stored at 4 °C prior to performing the click chemistry reaction. […]
An overnight culture of E. coli ATCC 25922, or of K. pneumoniae ATCC 700603, prepared as described above, was diluted to a final concentration of 5 × 10^6 CFU/mL and allowed to adjust for 30 min at 37 °C under shaking. Membrane permeabilization of bacteria was then assessed by incubating bacteria at 37 °C, in a final volume of 1 mL, with varying concentrations of each peptide or antibiotic used for the BONCAT assay. […] The fluorescence of untreated cells was used to establish the gating for positive PI-stained cells. […]

E. coli ATCC 25922 [2] = assay: Cell membrane permeabilization, propidium iodide flow cytometry; format: cell-based, Escherichia coli; settings: compound at its MIC, 40 min, 5 × 10^6 CFU/mL, supplemented M9, mean of n = 3
Method: Membrane permeabilization of bacteria was then assessed by incubating bacteria at 37 °C, in a final volume of 1 mL, with varying concentrations of each peptide or antibiotic used for the BONCAT assay. 5 min before the ending of the selected incubation time (40 min), propidium iodide probe was added to the samples to a final concentration of 10 μg/mL before analysis using a flow cytometer. A positive control consisted of E. coli cells dehydrated with ethanol (as described above), while untreated cells were used as negative control. The fluorescence of untreated cells was used to establish the gating for positive PI-stained cells. Fixed bacterial cells, subjected to the click chemistry reaction to link the Alexa Fluor azide 488 probe, were analysed by flow cytometry and, among the gates-selected ones, only those that tested positive for Propidium Iodide, and thus permeabilized, were considered for the calculation of the mean fluorescence intensity (MFI) of the Alexa Fluor azide 488.
Samples were analyzed by an Attune NxT® (ThermoFisher) equipped with a blue laser (488 nm) and photomultiplier tubes (PMTs) BL1 (525/50) and BL3 (695/40) to collect fluorescence. All parameters were set in logarithmic scale and the signals were recorded as Area. Forward scattering (FSC) was set to 300 mV, side scattering (SSC) to 350 mV and thresholds to 0.2 for FSC and 0.5 for SSC. The compensation matrix was performed according to the tool software. Hierarchical gates and acquisition flow rate (200 μL/min) were set to avoid coincident events. The files were saved as FCS 3.1 and analysed by FCS Express De Novo software v7. Flow cytometry data are presented as means ± SD from three independent experiments (n = 3).

Row | Molecule | Reduction in fluorescence after washout (E. coli ATCC 25922 [1]) | Membrane permeabilization (% PI +cells) (E. coli ATCC 25922 [2]) [%] | Membrane permeabilization (% PI +cells) (E. coli ATCC 25922 [2]; listed as Chloramphenicol) [%] | Membrane permeabilization (% PI +cells) (E. coli ATCC 25922 [2]; listed as Rifampin) [%]
1 | O=C(N[C@H](CO)[C@H](O)c1ccc([N+](=O)[O-])cc1)C(Cl)Cl [CHL, Chloramphenicol] | lost most of its inhibitory effects once removed from the medium | <1 | 0 | 
2 | CO[C@H]1/C=C/O[C@@]2(C)Oc3c(C)c(O)c4c(O)c(c(/C=N/N5CCN(C)CC5)c(O)c4c3C2=O)NC(=O)/C(C)=C\C=C\[C@H](C)[C@H](O)[C@@H](C)[C@@H](O)[C@@H](C)[C@H](OC(C)=O)[C@@H]1C [RIF, Rifampicin] | over 20% | <1 |  | 0
3 | RRIRPRPPRLPRPRPR [Bac7(1–16)] |  | <1 |  | 
4 | RRIRPRPPRLPRPRPRPLPFPRPGPRPIPRPLPFP [Bac7(1–35)] |  | <1 |  | 
